From ChEMBL document CHEMBL1141099, “Discovery of N-(2,6-dimethylphenyl)-substituted semicarbazones as anticonvulsants: hybrid pharmacophore-based design” (2005)

Assays:
Rattus norvegicus [1] = experiment: Number of rats protected at a dose of 30 mg/Kg when given oral at 1 hr upon maximal electroshock seizure; Total number of rats = 4; type: functional
Rattus norvegicus [2] = experiment: Number of rats protected at a dose of 30 mg/Kg when given oral at 2 hr upon maximal electroshock seizure; Total number of rats = 4; type: functional
Rattus norvegicus [3] = experiment: Number of rats protected at a dose of 30 mg/Kg when given oral at 4 hr upon maximal electroshock seizure; Total number of rats = 4; type: functional
Rattus norvegicus [4] = experiment: Number of rats protected at a dose of 30 mg/Kg when given oral at 0.5 hr upon maximal electroshock seizure; Total number of rats = 4; type: functional
Rattus norvegicus [5] = experiment: Number of rats protected at a dose of 30 mg/Kg when given oral at 0.25 hr upon maximal electroshock seizure; Total number of rats = 4; type: functional
Mus musculus [6] = experiment: Minimum dose required for anticonvulsant activity when given i.p., at 4 hr in mice upon maximal electroshock seizure; type: functional
Mus musculus [7] = experiment: Minimum dose required for anticonvulsant activity when given i.p., at 0.5 hr in mice upon maximal electroshock seizure; type: functional
Mus musculus [8] = experiment: Minimum dose required for anticonvulsant activity when given i.p., at 0.5 hr in mice upon neurotoxicity seizure using rotarod test; type: functional
Mus musculus [9] = experiment: Minimum dose required for anticonvulsant activity when given i.p., at 0.5 hr in mice upon subcutaneous pentylenetetrazole seizure; type: functional
Mus musculus [10] = experiment: Minimum dose required for anticonvulsant activity when given i.p., at 2 hr in mice upon subcutaneous strychnine seizure; type: functional
Mus musculus [11] = experiment: Minimum dose required for anticonvulsant activity when given i.p., at 0.5 hr in mice upon subcutaneous strychnine seizure; type: functional
Mus musculus [12] = experiment: Post treatment activity score for CNS study using a actophotometer at a dose of 100 mg/Kg after 1 hr when given i.p., in mice (No. of animals 6); Control (24h before) 280
Mus musculus [13] = experiment: Post treatment activity score for CNS study using a actophotometer at a dose of 100 mg/Kg after 0.5 hr when given i.p., in mice (No. of animals 6); Control (24h before) 280
Mus musculus [14] = experiment: Post treatment activity score for CNS study using a actophotometer at a dose of 100 mg/Kg after 1 hr when given i.p., in mice (No. of animals 6); Control (24h before) 270
Mus musculus [15] = experiment: Post treatment activity score for CNS study using a actophotometer at a dose of 100 mg/Kg after 0.5 hr when given i.p., in mice (No. of animals 6); Control (24h before) 270
Rattus norvegicus [16] = experiment: Toxic dose observed for anticonvulsant activity when given orally at 2 hr in rat upon neurotoxicity seizure; type: functional; details: po
Rattus norvegicus [17] = species on record: Rattus norvegicus; experiment: Protective index between effective dose and toxic dose in rat; type: functional
Rattus norvegicus [18] = experiment: Effective dose required for anticonvulsant activity when given orally at 2 h in rat upon maximal electroshock seizure; type: functional; details: po
Mus musculus [19] = experiment: Minimum dose required for anticonvulsant activity when given i.p., in mice upon neurotoxicity seizure using rotarod test
Mus musculus [20] = experiment: Post treatment activity score for CNS study using a actophotometer at a dose of 100 mg/Kg after 1 h when given i.p., in mice (No. of animals 6); Control (24h before) 214
Mus musculus [21] = experiment: Post treatment activity score for CNS study using a actophotometer at a dose of 100 mg/Kg after 0.5 hr when given i.p., in mice (No. of animals 6); Control (24h before) 214
Mus musculus [22] = experiment: Post treatment immobility time for CNS study using Porsolt's swimpool test at a dose of 100 mg/Kg after 1 hr when given i.p., in mice (No. of animals 6); Control (24h before) 159
Rattus norvegicus [23] = experiment: Enzymatic activity to assess the increase in level of SGOT at a dose of 30 mg/Kg for 14 days when given p.o., in 6 rats; Control 73.1; type: functional
Rattus norvegicus [24] = experiment: Enzymatic activity to assess the increase in level of SGPT at a dose of 30 mg/Kg for 14 days when given p.o., in 6 rats; Control 45.0; type: functional
Rattus norvegicus [25] = experiment: Toxic dose observed for anticonvulsant activity when given orally at 4 h in rat upon neurotoxicity seizure; type: functional; details: po
Rattus norvegicus [26] = experiment: Effective dose required for anticonvulsant activity when given orally at 4 h in rat upon maximal electroshock seizure; type: functional; details: po
Mus musculus [27] = experiment: Post treatment activity score for CNS study using a actophotometer at a dose of 100 mg/Kg after 1 hr when given i.p., in mice (No. of animals 6); Control (24h before) 258
Mus musculus [28] = experiment: Post treatment activity score for CNS study using a actophotometer at a dose of 100 mg/Kg after 0.5 hr when given i.p., in mice (No. of animals 6); Control (24h before) 258
Mus musculus [29] = experiment: Post treatment immobility time for CNS study using Porsolt's swimpool test at a dose of 100 mg/Kg after 1 hr when given i.p., in mice (No. of animals 6); Control (24h before) 184
[30] = molecular target: 4-aminobutyrate aminotransferase, mitochondrial (Rattus norvegicus) (UniProt P50554); experiment: In vitro percentage inhibition activity against GABA-T enzyme at a concentration of 2.5 uM after 6 h
[31] = molecular target: 4-aminobutyrate aminotransferase, mitochondrial (Rattus norvegicus) (UniProt P50554); experiment: In vitro percentage inhibition activity against GABA-T enzyme at a concentration of 2.5 uM after 4.5 h
Rattus norvegicus [32] = experiment: Effect on GABA level in rat whole brain concentration after 2 hr post-treatment at a dose of 100 mg/Kg when given i.p.; Control 48.4; type: functional
[33] = molecular target: 4-aminobutyrate aminotransferase, mitochondrial (Rattus norvegicus) (UniProt P50554); experiment: In vitro percentage inhibition activity against GABA-T enzyme at a concentration of 2.5 uM after 3 h
Rattus norvegicus [34] = experiment: Effect on GABA level in rat whole brain concentration after 7 days post-treatment at a dose of 30 mg/Kg when given orally; Control 50.5; type: functional
Rattus norvegicus [35] = experiment: Toxic dose observed for anticonvulsant activity when given i.p., at 0.25 hr in rat upon neurotoxicity seizure; type: functional; details: ip
Rattus norvegicus [36] = species on record: Rattus norvegicus; experiment: Ex vitro percentage inhibition activity against GABA-T enzyme at a concentration of 1.25 uM after 4.5 h; type: functional
Rattus norvegicus [37] = experiment: Effective dose required for anticonvulsant activity when given i.p., at 0.25 hr in rat upon maximal electroshock seizure; type: functional; details: ip
Rattus norvegicus [38] = species on record: Rattus norvegicus; experiment: Ex vitro percentage inhibition activity against GABA-T enzyme at a concentration of 1.25 uM after 3 h; type: functional
Rattus norvegicus [39] = species on record: Rattus norvegicus; experiment: Ex vitro percentage inhibition activity against GABA-T enzyme at a concentration of 1.25 uM after 6 h; type: functional
Mus musculus [40] = experiment: Mean sleeping time evaluated for CNS study using the pentobarbital-induced narcosis model at a dose of 100 mg/Kg when given i.p., in mice (No. of animals 6)
Mus musculus [41] = experiment: Post treatment activity score for CNS study using a actophotometer at a dose of 100 mg/Kg after 1 hr when given i.p., in mice (No. of animals 6); Control (24h before) 260
Mus musculus [42] = experiment: Post treatment activity score for CNS study using a actophotometer at a dose of 100 mg/Kg after 0.5 hr when given i.p., in mice (No. of animals 6); Control (24h before) 260
Mus musculus [43] = experiment: Post treatment immobility time for CNS study using Porsolt's swimpool test at a dose of 100 mg/Kg after 1 h when given i.p., in mice (No. of animals 6); Control (24h before) 164
Mus musculus [44] = experiment: Post treatment activity score for CNS study using a actophotometer at a dose of 100 mg/Kg after 1 hr when given i.p., in mice (No. of animals 6); Control (24h before) 224
Mus musculus [45] = experiment: Post treatment activity score for CNS study using a actophotometer at a dose of 100 mg/Kg after 0.5 hr when given i.p., in mice (No. of animals 6); Control (24h before) 224
Mus musculus [46] = experiment: Post treatment immobility time for CNS study using Porsolt's swimpool test at a dose of 100 mg/Kg after 1 hr when given i.p., in mice (No. of animals 6); Control (24h before) 176

Chain of 4-aminobutyrate aminotransferase, mitochondrial (Rattus norvegicus) (P50554 28-500 limits assumed): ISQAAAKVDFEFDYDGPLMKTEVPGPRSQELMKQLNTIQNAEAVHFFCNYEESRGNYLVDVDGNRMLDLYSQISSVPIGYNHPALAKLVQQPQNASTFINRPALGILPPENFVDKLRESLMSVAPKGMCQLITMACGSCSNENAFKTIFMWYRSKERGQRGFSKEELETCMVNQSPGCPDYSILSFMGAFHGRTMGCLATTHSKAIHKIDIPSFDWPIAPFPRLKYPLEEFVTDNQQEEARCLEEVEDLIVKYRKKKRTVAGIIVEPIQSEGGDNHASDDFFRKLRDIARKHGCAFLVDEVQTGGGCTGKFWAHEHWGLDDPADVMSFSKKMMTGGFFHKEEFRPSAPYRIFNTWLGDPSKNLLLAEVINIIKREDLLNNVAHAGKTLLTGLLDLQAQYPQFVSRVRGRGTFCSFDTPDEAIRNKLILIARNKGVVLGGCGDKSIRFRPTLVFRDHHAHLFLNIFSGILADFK

Row | SMILES | Activity (Rattus norvegicus [1]) | Activity (Rattus norvegicus [2]) | Activity (Rattus norvegicus [3]) | Activity (Rattus norvegicus [4]) | Activity (Rattus norvegicus [5]) | MES (Mus musculus [6]) [mg/kg] | MES (Mus musculus [7]) [mg/kg] | NT (Mus musculus [8]) [mg/kg] | PTZ seizure (Mus musculus [9]) [mg/kg] | STY seizure (Mus musculus [10]) [mg/kg] | STY seizure (Mus musculus [11]) [mg/kg] | PI (Rattus norvegicus [17]) | NT (Mus musculus [19]) [mg/kg] | SGOT activity (Rattus norvegicus [23]) [units/mL] | SGPT activity (Rattus norvegicus [24]) [units/mL] | TD50 (Rattus norvegicus [25]) [mg/kg] | ED50 (Rattus norvegicus [26]) [mg/kg] | Time (Mus musculus [40]) [min] | also measured
1 | Cc1cccc(C)c1NC(=O)/N=N/c1c(O)[nH]c2ccc(Cl)cc12 | 0 | 1 | 1 | 1 | 1 | 300 | 100 | 300 | 300 | 100 | 30 |  |  |  |  |  |  |  | Activity (Mus musculus [12]): 267; Activity (Mus musculus [13]): 263
2 | Cc1cccc(C)c1NC(=O)/N=N/c1c(O)[nH]c2ccccc12 | 1 | 1 | 3 | 2 | 2 | 300 | 100 | 300 |  | 100 | 30 |  |  |  |  |  |  |  | Activity (Mus musculus [14]): 217; Activity (Mus musculus [15]): 224
3 | CC(=O)C/C(C)=N\NC(=O)Nc1c(C)cccc1C | 2 | 4 | 4 | 4 | 2 | 300 | 100 | 300 | 300 | 300 | 100 | >10.8 | 300 |  |  |  |  |  | TD50 (Rattus norvegicus [16]): > 216 mg/kg; ED50 (Rattus norvegicus [18]): 19.8 mg/kg; Activity (Mus musculus [20]): 144; Activity (Mus musculus [21]): 127; Activity (Mus musculus [22]): 228
4 | C/C(=N\NC(=O)Nc1c(C)cccc1C)c1ccc(N)cc1 | 4 | 2 | 4 | 3 | 1 | 300 | 100 | 300 | 300 | 100 | 30 | >15.9 | 300 | 71.3 | 44.6 | > 464 | 29.1 |  | Activity (Mus musculus [27]): 187; Activity (Mus musculus [28]): 202; Activity (Mus musculus [29]): 204
5 | C/C(=N\NC(=O)Nc1c(C)cccc1C)c1ccc(O)cc1 | 4 | 3 | 4 | 2 | 1 | 300 | 100 |  | 300 | 100 | 30 | >1.6 |  |  |  |  |  | 108 | inhibition [30]: 55%; inhibition [31]: 0%; Activity (Rattus norvegicus [32]): 81.1 ug/100mg of tissue; inhibition [33]: 0%; Activity (Rattus norvegicus [34]): 93.6 ug/100mg of tissue; TD50 (Rattus norvegicus [35]): > 68 mg/kg; Inhibition (Rattus norvegicus [36]): 25%; ED50 (Rattus norvegicus [37]): 41.6 mg/kg; Inhibition (Rattus norvegicus [38]): 0%; Inhibition (Rattus norvegicus [39]): 60%; Activity (Mus musculus [41]): 198; Activity (Mus musculus [42]): 205; Activity (Mus musculus [43]): 198
6 | CC/C(C)=N\NC(=O)Nc1c(C)cccc1C | 4 | 3 | 3 | 4 | 1 | 300 | 100 |  | 300 | 100 | 30 | >17.2 |  | 79.6 | 49.3 | > 500 | 29 | 61 | Activity (Mus musculus [44]): 195; Activity (Mus musculus [45]): 188; Activity (Mus musculus [46]): 199
